# Assays:
# Cyperus iria [1] = test: Postemergence weed control under flooded paddy conditions, CYPIR (Rice Flatsedge); assay type: in vivo; details: rated three to four weeks after treatment
# [2] = system: Echinochloa oryzoides (Ard.) Fritsch.; test: Postemergence weed control under flooded paddy conditions, ECHORC (Watergrass (Calif.)); assay type: in vivo; details: rated three to four weeks after treatment
# [3] = system: Cyperus serotinus, Rottb.; test: Preemergence weed control under flooded paddy conditions, CYPSE (Flatsedge); assay type: in vivo; details: preemergence, rated three to four weeks after treatment
# Sagittaria pygmaea, L. [4] = test: Preemergence weed control under flooded paddy conditions, SAGPY (Arrowhead (Pygmaea)); assay type: in vivo; details: preemergence, flooded paddy, rated three to four weeks after treatment
# [5] = system: Oryza sativa, (L.) Tebonnet; test: Rice tolerance to post-transplant applications under flooded paddy conditions (Example 187), ORYSAT (Rice, Tebonnet); details: rated three to four weeks after treatment; as to herbicidal effect rating ORYSAT: meaning of each grade not given here
# [6] = system: Monochoria vaginalis, Presl.; test: Postemergence weed control under flooded paddy conditions, MOOVA (Monochoria); assay type: in vivo; details: rated three to four weeks after treatment
# Sagittaria pygmaea, L. [7] = test: Postemergence weed control under flooded paddy conditions, SAGPY (Arrowhead (Pygmaea)); assay type: in vivo; details: rated three to four weeks after treatment
# [8] = system: Monochoria vaginalis, Presl.; test: Preemergence weed control under flooded paddy conditions, MOOVA (Monochoria); assay type: in vivo; details: preemergence, flooded paddy, rated three to four weeks after treatment
# [9] = system: Oryza sativa, (L.) Tebonnet; test: Rice tolerance to post-transplant applications under flooded paddy conditions (Example 188), ORYSAT (Rice, Tebonnet); details: rated three to four weeks after treatment
# Cyperus iria [10] = test: Preemergence weed control under flooded paddy conditions, CYPIR (Rice Flatsedge); assay type: in vivo; details: preemergence, flooded paddy, rated three to four weeks after treatment
# [11] = system: Cyperus serotinus, Rottb.; test: Postemergence weed control under flooded paddy conditions, CYPSE (Flatsedge); assay type: in vivo; details: rated three to four weeks after treatment
# [12] = system: Echinochloa oryzoides (Ard.) Fritsch.; test: Preemergence weed control under flooded paddy conditions, ECHORC (Watergrass (Calif.)); assay type: in vivo; details: preemergence, flooded paddy, rated three to four weeks after treatment
structure (smiles),measurement,setting,value
"COC(=O)COc1ccc(C)cc1-c1noc2ccc(-n3c(=O)cc(C(F)(F)F)n(C)c3=O)c(Cl)c12 [Example 261, Acetic acid, {{2-{4-chloro-5-[3,6-dihydro-3-methyl-2,6-dioxo-4-(trifluoromethyl)-1(2H)-pyrimidinyl]-1,2-benzisoxazol-3-yl}-p-tolyl}oxy}-, methyl ester]","herbicidal effect rating, CYPIR",Cyperus iria [1]; Rate 0.0320 kg/ha,5.0
same,"herbicidal effect rating, CYPIR",Cyperus iria [1]; Rate 0.0620 kg/ha,6.0
same,"herbicidal effect rating, CYPIR",Cyperus iria [1]; Rate 0.1250 kg/ha,6.0
same,"herbicidal effect rating, CYPIR",Cyperus iria [1]; Rate 0.2500 kg/ha,6.0
same,"herbicidal effect rating, ECHORC",[2]; Rate 0.0320 kg/ha,0.0
same,"herbicidal effect rating, ECHORC",[2]; Rate 0.0620 kg/ha,0.0
same,"herbicidal effect rating, ECHORC",[2]; Rate 0.1250 kg/ha,0.0
same,"herbicidal effect rating, ECHORC",[2]; Rate 0.2500 kg/ha,0.0
same,CYPSE herbicidal effect rating,[3]; Rate 0.0320 kg/ha,4.5
same,CYPSE herbicidal effect rating,[3]; Rate 0.0620 kg/ha,4.5
same,CYPSE herbicidal effect rating,[3]; Rate 0.1250 kg/ha,4.5
same,CYPSE herbicidal effect rating,[3]; Rate 0.2500 kg/ha,0.0
same,SAGPY herbicidal effect rating,"Sagittaria pygmaea, L. [4]; Rate 0.0320 kg/ha",0.0
same,SAGPY herbicidal effect rating,"Sagittaria pygmaea, L. [4]; Rate 0.0620 kg/ha",0.0
same,SAGPY herbicidal effect rating,"Sagittaria pygmaea, L. [4]; Rate 0.1250 kg/ha",0.0
same,SAGPY herbicidal effect rating,"Sagittaria pygmaea, L. [4]; Rate 0.2500 kg/ha",0.0
same,ORYSAT herbicidal effect rating,[5]; Rate 0.0320 kg/ha,0.0
same,ORYSAT herbicidal effect rating,[5]; Rate 0.0620 kg/ha,0.0
same,ORYSAT herbicidal effect rating,[5]; Rate 0.1250 kg/ha,0.0
same,ORYSAT herbicidal effect rating,[5]; Rate 0.2500 kg/ha,0.0
same,"herbicidal effect rating, MOOVA",[6]; Rate 0.0320 kg/ha,9.0
same,"herbicidal effect rating, MOOVA",[6]; Rate 0.0620 kg/ha,9.0
same,"herbicidal effect rating, MOOVA",[6]; Rate 0.1250 kg/ha,9.0
same,"herbicidal effect rating, MOOVA",[6]; Rate 0.2500 kg/ha,9.0
same,"herbicidal effect rating, SAGPY","Sagittaria pygmaea, L. [7]; Rate 0.0320 kg/ha",0.0
same,"herbicidal effect rating, SAGPY","Sagittaria pygmaea, L. [7]; Rate 0.0620 kg/ha",0.0
same,"herbicidal effect rating, SAGPY","Sagittaria pygmaea, L. [7]; Rate 0.1250 kg/ha",0.0
same,"herbicidal effect rating, SAGPY","Sagittaria pygmaea, L. [7]; Rate 0.2500 kg/ha",0.0
same,MOOVA herbicidal effect rating,[8]; Rate 0.0320 kg/ha,4.5
same,MOOVA herbicidal effect rating,[8]; Rate 0.0620 kg/ha,4.5
same,MOOVA herbicidal effect rating,[8]; Rate 0.1250 kg/ha,6.0
same,MOOVA herbicidal effect rating,[8]; Rate 0.2500 kg/ha,3.0
same,"herbicidal effect rating, ORYSAT (rice tolerance)",[9]; Rate 0.0320 kg/ha,0.0
same,"herbicidal effect rating, ORYSAT (rice tolerance)",[9]; Rate 0.0620 kg/ha,0.0
same,"herbicidal effect rating, ORYSAT (rice tolerance)",[9]; Rate 0.1250 kg/ha,0.0
same,"herbicidal effect rating, ORYSAT (rice tolerance)",[9]; Rate 0.2500 kg/ha,0.0
same,CYPIR herbicidal effect rating,Cyperus iria [10]; Rate 0.0320 kg/ha,4.0
same,CYPIR herbicidal effect rating,Cyperus iria [10]; Rate 0.0620 kg/ha,4.5
same,CYPIR herbicidal effect rating,Cyperus iria [10]; Rate 0.1250 kg/ha,5.5
same,CYPIR herbicidal effect rating,Cyperus iria [10]; Rate 0.2500 kg/ha,2.0
same,"herbicidal effect rating, CYPSE",[11]; Rate 0.0320 kg/ha,0.0
same,"herbicidal effect rating, CYPSE",[11]; Rate 0.0620 kg/ha,0.0
same,"herbicidal effect rating, CYPSE",[11]; Rate 0.1250 kg/ha,0.0
same,"herbicidal effect rating, CYPSE",[11]; Rate 0.2500 kg/ha,0.0
same,ECHORC herbicidal effect rating,[12]; Rate 0.0320 kg/ha,2.5
same,ECHORC herbicidal effect rating,[12]; Rate 0.0620 kg/ha,2.0
same,ECHORC herbicidal effect rating,[12]; Rate 0.1250 kg/ha,2.0
same,ECHORC herbicidal effect rating,[12]; Rate 0.2500 kg/ha,0.0
"COCc1nsc2cc(F)c(-n3c(=O)cc(C(F)(F)F)n(C)c3=O)cc12 [Example 378, 2,4(1H,3H)-Pyrimidinedione, 3-[6-fluoro-3-(methoxymethyl)-1,2-benzisothiazol-5-yl]-1-methyl-6-(trifluoromethyl)-]","herbicidal effect rating, CYPIR",Cyperus iria [1]; Rate 0.0320 kg/ha,9.0
same,"herbicidal effect rating, CYPIR",Cyperus iria [1]; Rate 0.0620 kg/ha,9.0
same,"herbicidal effect rating, CYPIR",Cyperus iria [1]; Rate 0.1250 kg/ha,9.0
same,"herbicidal effect rating, ECHORC",[2]; Rate 0.0320 kg/ha,9.0
same,"herbicidal effect rating, ECHORC",[2]; Rate 0.0620 kg/ha,9.0
same,"herbicidal effect rating, ECHORC",[2]; Rate 0.1250 kg/ha,9.0
same,"herbicidal effect rating, CYPSE",[3]; Rate 0.0320 kg/ha,9.0
same,"herbicidal effect rating, CYPSE",[3]; Rate 0.0620 kg/ha,9.0
same,"herbicidal effect rating, CYPSE",[3]; Rate 0.1250 kg/ha,9.0
same,"herbicidal effect rating, CYPSE",[3]; Rate 0.2500 kg/ha,9.0
same,"herbicidal effect rating, SAGPY","Sagittaria pygmaea, L. [4]; Rate 0.0320 kg/ha",9.0
same,"herbicidal effect rating, SAGPY","Sagittaria pygmaea, L. [4]; Rate 0.0620 kg/ha",9.0
same,"herbicidal effect rating, SAGPY","Sagittaria pygmaea, L. [4]; Rate 0.1250 kg/ha",9.0
same,"herbicidal effect rating, SAGPY","Sagittaria pygmaea, L. [4]; Rate 0.2500 kg/ha",9.0
same,herbicidal effect rating ORYSAT,[5]; Rate 0.0320 kg/ha,9.0
same,herbicidal effect rating ORYSAT,[5]; Rate 0.0620 kg/ha,9.0
same,herbicidal effect rating ORYSAT,[5]; Rate 0.1250 kg/ha,9.0
same,herbicidal effect rating ORYSAT,[5]; Rate 0.2500 kg/ha,9.0
same,"herbicidal effect rating, MOOVA",[6]; Rate 0.0320 kg/ha,9.0
same,"herbicidal effect rating, MOOVA",[6]; Rate 0.0620 kg/ha,9.0
same,"herbicidal effect rating, MOOVA",[6]; Rate 0.1250 kg/ha,9.0
same,"herbicidal effect rating, SAGPY","Sagittaria pygmaea, L. [7]; Rate 0.0320 kg/ha",9.0
same,"herbicidal effect rating, SAGPY","Sagittaria pygmaea, L. [7]; Rate 0.0620 kg/ha",9.0
same,"herbicidal effect rating, SAGPY","Sagittaria pygmaea, L. [7]; Rate 0.1250 kg/ha",9.0
same,"herbicidal effect rating, MOOVA",[8]; Rate 0.0320 kg/ha,9.0
same,"herbicidal effect rating, MOOVA",[8]; Rate 0.0620 kg/ha,9.0
same,"herbicidal effect rating, MOOVA",[8]; Rate 0.1250 kg/ha,9.0
same,"herbicidal effect rating, MOOVA",[8]; Rate 0.2500 kg/ha,9.0
same,"herbicidal effect rating, ORYSAT (rice tolerance)",[9]; Rate 0.0320 kg/ha,8.0
same,"herbicidal effect rating, ORYSAT (rice tolerance)",[9]; Rate 0.0620 kg/ha,8.0
same,"herbicidal effect rating, ORYSAT (rice tolerance)",[9]; Rate 0.1250 kg/ha,9.0
same,"herbicidal effect rating, CYPIR",Cyperus iria [10]; Rate 0.0320 kg/ha,9.0
same,"herbicidal effect rating, CYPIR",Cyperus iria [10]; Rate 0.0620 kg/ha,9.0
same,"herbicidal effect rating, CYPIR",Cyperus iria [10]; Rate 0.1250 kg/ha,9.0
same,"herbicidal effect rating, CYPIR",Cyperus iria [10]; Rate 0.2500 kg/ha,9.0
same,"herbicidal effect rating, CYPSE",[11]; Rate 0.0320 kg/ha,9.0
same,"herbicidal effect rating, CYPSE",[11]; Rate 0.0620 kg/ha,9.0
same,"herbicidal effect rating, CYPSE",[11]; Rate 0.1250 kg/ha,9.0
same,"herbicidal effect rating, ECHORC",[12]; Rate 0.0320 kg/ha,9.0
same,"herbicidal effect rating, ECHORC",[12]; Rate 0.0620 kg/ha,9.0
same,"herbicidal effect rating, ECHORC",[12]; Rate 0.1250 kg/ha,9.0
same,"herbicidal effect rating, ECHORC",[12]; Rate 0.2500 kg/ha,9.0
